This test addresses T1, sGC α1/β1 heterodimer (Homo sapiens, UniProt Q02108+Q02153).
T1 construct: expressed in transfected cells
T1 sequence (Q02108 1-690): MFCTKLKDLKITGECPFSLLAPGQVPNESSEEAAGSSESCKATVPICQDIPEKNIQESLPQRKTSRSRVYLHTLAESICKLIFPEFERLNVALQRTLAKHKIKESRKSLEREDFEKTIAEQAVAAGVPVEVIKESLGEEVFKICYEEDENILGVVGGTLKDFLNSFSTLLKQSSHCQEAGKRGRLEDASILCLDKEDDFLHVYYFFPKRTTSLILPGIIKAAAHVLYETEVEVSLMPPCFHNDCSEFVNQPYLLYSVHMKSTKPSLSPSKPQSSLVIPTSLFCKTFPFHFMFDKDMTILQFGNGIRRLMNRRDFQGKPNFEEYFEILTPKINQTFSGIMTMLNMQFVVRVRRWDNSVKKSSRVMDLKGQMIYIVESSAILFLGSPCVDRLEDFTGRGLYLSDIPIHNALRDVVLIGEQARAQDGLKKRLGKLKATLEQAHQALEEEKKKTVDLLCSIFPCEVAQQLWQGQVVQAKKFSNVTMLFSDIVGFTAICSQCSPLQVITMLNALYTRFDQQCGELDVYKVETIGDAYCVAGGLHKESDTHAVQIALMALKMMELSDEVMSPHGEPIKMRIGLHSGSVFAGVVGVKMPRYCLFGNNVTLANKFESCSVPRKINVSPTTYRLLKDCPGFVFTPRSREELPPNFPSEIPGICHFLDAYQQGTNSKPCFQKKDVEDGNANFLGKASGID
T1 sequence (Q02153 1-619): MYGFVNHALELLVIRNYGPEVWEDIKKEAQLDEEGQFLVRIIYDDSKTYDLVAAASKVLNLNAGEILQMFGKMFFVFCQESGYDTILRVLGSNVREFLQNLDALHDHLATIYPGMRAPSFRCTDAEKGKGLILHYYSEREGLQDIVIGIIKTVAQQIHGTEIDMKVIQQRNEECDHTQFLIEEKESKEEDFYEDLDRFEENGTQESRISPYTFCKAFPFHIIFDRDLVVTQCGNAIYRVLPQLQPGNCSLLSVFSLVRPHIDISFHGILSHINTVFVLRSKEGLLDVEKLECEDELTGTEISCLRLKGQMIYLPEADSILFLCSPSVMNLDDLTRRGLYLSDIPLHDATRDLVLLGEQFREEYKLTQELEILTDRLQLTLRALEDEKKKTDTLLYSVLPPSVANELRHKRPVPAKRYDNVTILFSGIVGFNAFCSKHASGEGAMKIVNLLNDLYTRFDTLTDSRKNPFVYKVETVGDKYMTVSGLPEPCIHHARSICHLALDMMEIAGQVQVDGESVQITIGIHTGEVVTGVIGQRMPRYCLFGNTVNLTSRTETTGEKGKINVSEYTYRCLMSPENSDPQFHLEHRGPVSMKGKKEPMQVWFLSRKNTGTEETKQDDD
Put plainly: Cell-Based sGC Functional Assay (CASA Assay), cGMP generation in CHO-K1/sGC cells.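 Also: reference Compound A is a published heme-dependent sGC activator.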 Particulars: maximum cGMP production of Compound A set to 100% activation, read-out: % Act. (percent activation relative to Compound A). In a few lines:
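Intracellular cGMP quantified by HTRF competition after 1 h, 37 °C compound exposure, with or without 1 μM DETA-NO, in stable CHO-K1/sGC α1/β1 cells (4×10^5/mL; buffer with 0.5 mM IBMX, 5 mM MgCl2, 10 mM HEPES, 0.05% BSA; 2.5% DMSO). Activation normalized to reference Compound A maximum; 4P fit.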
Consider `Cc1ccc(C2(C)C(=O)Nc3nc(-c4cn5ncnc5c(CCCC(F)(F)F)n4)nc(O)c32)nc1` (stereo not drawn) [Example 149B, 4-hydroxy-5-methyl-5-(5-methylpyridin-2-yl)-2-(8-(4,4,4-trifluorobutyl)-[1,2,4]triazolo[1,5-a]pyrazin-6-yl)-5H-pyrrolo[2,3-d]pyrimidin-6(7H)-one], for which the Emax amounted to 63%. On to `O=C1Nc2nc(-c3cn4ncnc4c(CCCC(F)(F)F)n3)nc(O)c2C1(c1ccc(F)cn1)C1CC1` (stereo not drawn) [Example 150A, 5-cyclopropyl-5-(5-fluoropyridin-2-yl)-4-hydroxy-2-(8-(4,4,4-trifluorobutyl)-[1,2,4]triazolo[1,5-a]pyrazin-6-yl)-5,7-dihydro-6H-pyrrolo[2,3-d]pyrimidin-6-one], for which the Emax came to 74%. Regarding `CC1(c2ccc(Cl)c(F)c2)C(=O)Nc2nc(-c3cn4ncnc4c(CCC(F)(F)F)n3)nc(O)c21` (stereo not drawn) [Example 153B, 5-(4-chloro-3-fluorophenyl)-4-hydroxy-5-methyl-2-(8-(3,3,3-trifluoropropyl)-[1,2,4]triazolo[1,5-a]pyrazin-6-yl)-5H-pyrrolo[2,3-d]pyrimidin-6(7H)-one], the Emax stood at 104%.

As to `CCCCc1nc(-c2nc(O)c3c(n2)NC(=O)C3(C)c2ccc(Cl)cc2)cn2ncnc12` (stereo not drawn) [Example 157A, 2-(8-butyl-[1,2,4]triazolo[1,5-a]pyrazin-6-yl)-5-(4-chlorophenyl)-4-hydroxy-5-methyl-5H-pyrrolo[2,3-d]pyrimidin-6(7H)-one], the Emax is 161%. To `CCCCc1nc(-c2nc(O)c3c(n2)NC(=O)C3(C)c2ccc(C(F)(F)F)cn2)cn2ncnc12` (stereo not drawn) [Example 159B, 2-(8-butyl-[1,2,4]triazolo[1,5-a]pyrazin-6-yl)-4-hydroxy-5-methyl-5-(5-(trifluoromethyl)pyridin-2-yl)-5H-pyrrolo[2,3-d]pyrimidin-6(7H)-one] belongs 73%. The same measure for `CCCCc1nc(-c2nc(O)c3c(n2)NC(=O)C3(C)c2ccc(C)cn2)cn2ncnc12` (stereo not drawn) [Example 161B, 2-(8-butyl-[1,2,4]triazolo[1,5-a]pyrazin-6-yl)-4-hydroxy-5-methyl-5-(5-methylpyridin-2-yl)-5H-pyrrolo[2,3-d]pyrimidin-6(7H)-one]: 95%; for `C[C@@]1(c2ccc(F)cc2)C(=O)Nc2nc(-c3cn4ncnc4c(Cc4ccc(F)cc4)n3)nc(O)c21` [Example 162B, (S)-2-(8-(4-fluorobenzyl)-[1,2,4]triazolo[1,5-a]pyrazin-6-yl)-5-(4-fluorophenyl)-4-hydroxy-5-methyl-5H-pyrrolo[2,3-d]pyrimidin-6(7H)-one]: 100%.

On to `CC(C)Cc1nc(-c2nc(O)c3c(n2)NC(=O)[C@@]3(C)c2ccc(F)cc2)cn2ncnc12` [Example 163A, (S)-5-(4-fluorophenyl)-4-hydroxy-2-(8-isobutyl-[1,2,4]triazolo[1,5-a]pyrazin-6-yl)-5-methyl-5,7-dihydro-6H-pyrrolo[2,3-d]pyrimidin-6-one], for which the Emax came to 109%. The same measure for `CCCc1nc(-c2nc(O)c3c(n2)NC(=O)C3(c2ccc(F)c(F)c2)C2CC2)cn2ncnc12` (stereo not drawn) [Example 167A, 5-cyclopropyl-5-(3,4-difluorophenyl)-4-hydroxy-2-(8-propyl-[1,2,4]triazolo[1,5-a]pyrazin-6-yl)-5H-pyrrolo[2,3-d]pyrimidin-6(7H)-one]: 70%. Regarding `CCCc1nc(-c2nc(O)c3c(n2)NC(=O)C3(C)c2ccc(Cl)cc2)cn2nc(C)nc12` (stereo not drawn) [Example 168A, 5-(4-chlorophenyl)-4-hydroxy-5-methyl-2-(2-methyl-8-propyl-[1,2,4]triazolo[1,5-a]pyrazin-6-yl)-5H-pyrrolo[2,3-d]pyrimidin-6(7H)-one], the Emax amounted to 77%. Take `CC1(c2ccc(F)c(F)c2)C(=O)Nc2nc(-c3cn4ncnc4c(CCC(F)(F)C(F)(F)F)n3)nc(O)c21` (stereo not drawn) [Example 169B, 5-(3,4-Difluorophenyl)-4-hydroxy-5-methyl-2-(8-(3,3,4,4,4-pentafluorobutyl)-[1,2,4]triazolo[1,5-a]pyrazin-6-yl)-5,7-dihydro-6H-pyrrolo[2,3-d]pyrimidin-6-one]: the Emax was 116%. On to `CC1(c2ccccc2F)C(=O)Nc2nc(-c3cn4ncnc4c(CCC(F)(F)C(F)(F)F)n3)nc(O)c21` (stereo not drawn) [Example 170A, 5-(2-Fluorophenyl)-4-hydroxy-5-methyl-2-(8-(3,3,4,4,4-pentafluorobutyl)-[1,2,4]triazolo[1,5-a]pyrazin-6-yl)-5,7-dihydro-6H-pyrrolo[2,3-d]pyrimidin-6-one], for which the Emax is 125%. To `CCCCc1nc(-c2nc(O)c3c(n2)NC(=O)C3(C)c2cccc(F)c2)cn2ncnc12` (stereo not drawn) [Example 171A, 2-(8-Butyl-[1,2,4]triazolo[1,5-a]pyrazin-6-yl)-5-(3-fluorophenyl)-4-hydroxy-5-methyl-5,7-dihydro-6H-pyrrolo[2,3-d]pyrimidin-6-one] belongs 90%; to `C[C@@]1(c2ccc(F)cc2)C(=O)Nc2nc(-c3cn4ncnc4c(CCC(F)(F)C(F)(F)F)n3)ncc21` [Example 172A, (S)-5-(4-fluorophenyl)-5-methyl-2-(8-(3,3,4,4,4-pentafluorobutyl)-[1,2,4]triazolo[1,5-a]pyrazin-6-yl)-5,7-dihydro-6H-pyrrolo[2,3-d]pyrimidin-6-one], 122%.

For the compound `C[C@@]1(c2ccc(F)cc2)C(=O)Nc2nc(-c3cn4ncnc4c(CCC(F)(F)F)n3)ncc21` [Example 174A, (S)-5-(4-fluorophenyl)-5-methyl-2-(8-(3,3,3-trifluoropropyl)-[1,2,4]triazolo[1,5-a]pyrazin-6-yl)-5,7-dihydro-6H-pyrrolo[2,3-d]pyrimidin-6-one], the Emax was determined as 133%.

In the case of `CC1(c2ccc(Cl)cn2)C(=O)Nc2nc(-c3cn4ncnc4c(CCC(F)(F)C(F)(F)F)n3)ncc21` (stereo not drawn) [Example 175A, 5-(5-chloropyridin-2-yl)-5-methyl-2-(8-(3,3,4,4,4-pentafluorobutyl)-[1,2,4]triazolo[1,5-a]pyrazin-6-yl)-5H-pyrrolo[2,3-d]pyrimidin-6(7H)-one], the Emax was determined as 115%.

Consider `CC1(c2ccc(F)cn2)C(=O)Nc2nc(-c3cn4ncnc4c(CCCC(F)(F)F)n3)ncc21` (stereo not drawn) [Example 176B, 5-(5-fluoropyridin-2-yl)-5-methyl-2-(8-(4,4,4-trifluorobutyl)-[1,2,4]triazolo[1,5-a]pyrazin-6-yl)-5H-pyrrolo[2,3-d]pyrimidin-6(7H)-one], for which the Emax came to 166%. Consider `CC1(c2ccc(C(F)F)cn2)C(=O)Nc2nc(-c3cn4ncnc4c(CCCC(F)(F)F)n3)nc(O)c21` (stereo not drawn) [Example 181B, 4-hydroxy-5-(5-(difluoromethyl)pyridin-2-yl)-5-methyl-2-(8-(4,4,4-trifluorobutyl)-[1,2,4]triazolo[1,5-a]pyrazin-6-yl)-5H-pyrrolo[2,3-d]pyrimidin-6(7H)-one], for which the Emax turned out to be 55%.

Source of the values: patent US10925876B2, “Methods for using triazolo-pyrazinyl soluble guanylate cyclase activators in fibrotic disorders” (Merck Sharp & Dohme Corp., priority 2016, dated 2021).
